Literature values in patent publication US20110030103A1, “LIPOPEPTIDES AND LIPOPEPTIDE SYNTHETASES” (priority 2007, published 2011).
*1 amine or outer side, *2 acyl side, *3 side chain or, on linkers, in order; H or OH if unused. Where a SMILES comes first, the peptide text is derived from it. Bridges are numbered along the chain shown (N, C = ends). [ ]: non-standard residue; d: D form. X1 = CC(C)CCCCCCCCC[C@H](CC(=O)[*:1])O[*:2]

Tested on: bacteria, including both Gram-negative and Gram-positive bacteria
Conditions: minimal antibacterial effects; background statement

CC(C)CCCCCCCCC[C@@H]1CC(=O)N[C@@H](CCC(=O)O)C(=O)N[C@@H](CC(C)C)C(=O)N[C@H](CC(C)C)C(=O)N[C@@H](C(C)C)C(=O)N[C@@H](CC(=O)O)C(=O)N[C@H](CC(C)C)C(=O)N[C@@H](CC(C)C)C(=O)O1 [surfactin] (EL[dL]VD[dL]L; linker N-C via X1)
minimum inhibitory concentration (MIC): 12 to 50 µg/mL
